Where two headings read alike, the source gives them in different places.
Columns and labels:
Assay type in all cases: cell-based
[1] = target: T1, hGIPR (Homo sapiens, UniProt P48546); experiment: Functional cAMP formation (HTRF) in HEK-293 clonal cells expressing hGIPR, 0.1% bovine casein, without or with 1.0% human serum albumin; conditions: for EC50: geometric mean
T1 construct: expressed in transfected cells
T1 sequence (P48546 22-466): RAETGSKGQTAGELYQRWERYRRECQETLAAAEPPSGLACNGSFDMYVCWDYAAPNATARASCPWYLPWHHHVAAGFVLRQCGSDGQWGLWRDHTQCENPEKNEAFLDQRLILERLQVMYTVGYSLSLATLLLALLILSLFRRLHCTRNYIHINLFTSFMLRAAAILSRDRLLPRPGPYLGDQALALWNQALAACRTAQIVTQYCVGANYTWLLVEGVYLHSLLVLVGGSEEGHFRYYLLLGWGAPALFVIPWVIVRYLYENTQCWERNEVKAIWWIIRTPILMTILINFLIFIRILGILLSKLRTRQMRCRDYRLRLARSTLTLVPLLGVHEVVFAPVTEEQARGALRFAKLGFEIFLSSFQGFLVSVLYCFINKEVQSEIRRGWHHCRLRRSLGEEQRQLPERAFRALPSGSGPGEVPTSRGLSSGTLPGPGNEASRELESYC
Summary of the method: (§1)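 Readings of the HTRF 665/620 nm ratio, which falls as cAMP rises, were converted to nM cAMP using a standard curve after 30 min peptide exposure at 37° C.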

[2] = target: hGLP-1R (Homo sapiens, UniProt P43220); experiment: Functional cAMP formation (HTRF) in HEK-293 clonal cells expressing hGLP-1R, 0.1% bovine casein, without or with 1.0% human serum albumin; design: expressed in transfected cells; conditions: for Emax: percent of maximal response to GLP-1(7-36)NH2; for EC50: cAMP, 0.1% bovine casein (no human serum albumin), geometric mean
Sequence of hGLP-1R (P43220 24-463): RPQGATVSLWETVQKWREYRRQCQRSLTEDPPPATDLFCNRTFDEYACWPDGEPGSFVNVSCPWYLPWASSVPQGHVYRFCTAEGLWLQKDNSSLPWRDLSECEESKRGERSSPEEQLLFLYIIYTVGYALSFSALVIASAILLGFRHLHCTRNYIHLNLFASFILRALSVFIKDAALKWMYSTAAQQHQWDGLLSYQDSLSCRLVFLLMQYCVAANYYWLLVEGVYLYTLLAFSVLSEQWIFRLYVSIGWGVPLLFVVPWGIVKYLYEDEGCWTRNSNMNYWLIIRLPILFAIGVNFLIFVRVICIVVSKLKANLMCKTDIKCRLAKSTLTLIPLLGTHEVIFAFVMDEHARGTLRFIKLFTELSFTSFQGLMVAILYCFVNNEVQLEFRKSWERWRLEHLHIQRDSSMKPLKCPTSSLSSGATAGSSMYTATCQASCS
Summary of the method: as §1

[3] = target: T2, hGCGR (Homo sapiens, UniProt P47871); experiment: Functional cAMP formation (HTRF) in HEK-293 clonal cells expressing hGCGR, 0.1% bovine casein, without or with 1.0% human serum albumin; conditions: geometric mean
T2 construct: expressed in transfected cells
T2 sequence (P47871 26-477): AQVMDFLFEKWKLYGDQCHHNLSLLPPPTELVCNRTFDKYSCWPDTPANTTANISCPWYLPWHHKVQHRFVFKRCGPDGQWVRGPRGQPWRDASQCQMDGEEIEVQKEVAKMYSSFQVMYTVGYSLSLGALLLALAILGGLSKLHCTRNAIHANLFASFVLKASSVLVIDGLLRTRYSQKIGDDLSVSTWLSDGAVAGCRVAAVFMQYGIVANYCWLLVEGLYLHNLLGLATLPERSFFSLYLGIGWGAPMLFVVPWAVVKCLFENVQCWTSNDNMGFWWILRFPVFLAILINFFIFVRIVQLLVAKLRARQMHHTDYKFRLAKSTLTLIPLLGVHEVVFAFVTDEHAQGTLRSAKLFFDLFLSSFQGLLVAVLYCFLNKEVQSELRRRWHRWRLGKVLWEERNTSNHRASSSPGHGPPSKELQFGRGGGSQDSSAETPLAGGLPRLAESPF
Summary of the method: as §1

[4] = hGIPR EC50, nM (SEM, n), cAMP, 37° C., 0.1% bovine casein (no human serum albumin)
[5] = HEK293, read-out: hGLP-1R Emax, % ± SEM, 0.1% bovine casein and 1.0% human serum albumin, 37° C.
[6] = hGLP-1R EC50, nM (SEM, n), 37° C.
[7] = hGCGR EC50, nM (SEM, n), 0.1% bovine casein and 1.0% human serum albumin, 37° C.
[8] = hGCGR EC50, nM (SEM, n), cAMP, 37° C., 0.1% bovine casein (no human serum albumin)
[9] = HEK293, 0.1% bovine casein and 1.0% human serum albumin, 37° C., percent of maximal response to GIP(1-42)NH2, read-out: hGIPR Emax, % ± SEM
[10] = 0.1% bovine casein and 1.0% human serum albumin, 37° C., read-out: hGCGR EC50, nM (SEM, n)

For CC[C@H](C)[C@H](NC(=O)[C@H](CC(C)C)NC(=O)[C@](C)(Cc1ccc(O)cc1)NC(=O)[C@@H](CCC(=O)O)NC(=O)[C@@H](NC(=O)[C@H](Cc1ccccc1)NC(=O)[C@H](CCCCNC(=O)COCCOCCNC(=O)COCCOCCNC(=O)CC[C@H](NC(=O)CCCCCCCCCOc1ccc(C(=O)O)cc1)C(=O)O)NC(=O)C(C)(C)NC(=O)[C@H](CCC(N)=O)NC(=O)[C@H](C)NC(=O)[C@H](CCCCNC(=O)COCCOCCNC(=O)COCCOCCNC(=O)CC[C@H](NC(=O)CCCCCCCCCOc1ccc(C(=O)O)cc1)C(=O)O)NC(=O)[C@H](CCCN)NC(=O)[C@H](CC(=O)O)NC(=O)[C@H](CC(C)C)NC(=O)[C@](C)(CC(C)C)NC(=O)[C@@H](NC(=O)[C@H](CO)NC(=O)[C@H](Cc1ccc2ccccc2c1)NC(=O)[C@H](CC(=O)O)NC(=O)[C@H](CO)NC(=O)[C@@H](NC(=O)[C@](C)(Cc1ccccc1F)NC(=O)[C@@H](NC(=O)CNC(=O)[C@H](CCC(=O)O)NC(=O)C(C)(C)NC(=O)[C@@H](N)Cc1ccc(O)cc1)[C@@H](C)O)[C@@H](C)O)[C@@H](C)CC)[C@@H](C)CC)C(=O)N[C@@H](CCC(=O)O)C(=O)NCC(=O)NCC(=O)N1CCC[C@H]1C(=O)N[C@@H](CO)C(=O)N[C@@H](CO)C(=O)NCC(=O)N[C@@H](C)C(=O)N1CCC[C@H]1C(=O)N1CCC[C@H]1C(=O)N1CCC[C@H]1C(=O)N[C@@H](CO)C(N)=O [Example 281], which Emax ([1]; HEK293, read-out: hGIPR Emax, % ± SEM, 0.1% bovine casein and 1.0% human serum albumin, 37° C., percent of maximal response to GIP(1-42)NH2) is on record?
The Emax was 97.9%.

What about the Emax ([1]; HEK293, read-out: hGIPR Emax, % ± SEM, cAMP, 37° C., 0.1% bovine casein, percent of maximal response to GIP(1-42)NH2, arithmetic mean) of the same compound?
Its Emax is 110%.

And the EC50 ([1]; hGIPR EC50, nM (SEM, n), 0.1% bovine casein and 1.0% human serum albumin, 37° C.)?
Its EC50 is 1.87 nM.

And the EC50 [1, 4]?
The EC50 was 0.0187 nM.

What about the Emax [2, 5] of the same compound?
The Emax was 91.7%.

And the EC50 [2, 6]?
The EC50 was 0.252 nM.

And the EC50 [3, 7]?
The EC50 was over 9950 nM.

What about the EC50 [3, 8] of the same compound?
The EC50 was over 9950 nM.

CC[C@H](C)[C@H](NC(=O)[C@H](CC(C)C)NC(=O)[C@](C)(Cc1ccc(O)cc1)NC(=O)[C@@H](CCC(=O)O)NC(=O)[C@@H](NC(=O)[C@H](Cc1ccccc1)NC(=O)[C@H](CCC(=O)O)NC(=O)C(C)(C)NC(=O)[C@H](CCC(N)=O)NC(=O)[C@H](C)NC(=O)[C@H](CCCCNC(=O)COCCOCCNC(=O)COCCOCCNC(=O)CC[C@H](NC(=O)CCCCCCCCCCCCC(=O)O)C(=O)O)NC(=O)[C@H](CCCN)NC(=O)[C@H](CC(=O)O)NC(=O)[C@H](CC(C)C)NC(=O)[C@](C)(CC(C)C)NC(=O)[C@@H](NC(=O)C(C)(C)NC(=O)[C@H](Cc1ccncc1)NC(=O)[C@H](CC(=O)O)NC(=O)[C@H](CO)NC(=O)[C@@H](NC(=O)[C@](C)(Cc1ccccc1F)NC(=O)[C@@H](NC(=O)CNC(=O)[C@H](CCC(=O)O)NC(=O)C(C)(C)NC(=O)[C@@H](N)Cc1ccc(O)cc1)[C@@H](C)O)[C@@H](C)O)[C@@H](C)CC)[C@@H](C)CC)C(=O)N[C@@H](CCC(=O)O)C(=O)NCC(=O)NCC(=O)N[C@@H](CCCCNC(=O)COCCOCCNC(=O)COCCOCCNC(=O)CC[C@H](NC(=O)CCCCCCCCCCCCC(=O)O)C(=O)O)C(=O)N[C@@H](CO)C(=O)N[C@@H](CO)C(=O)NCC(=O)N[C@@H](C)C(=O)N1CCC[C@H]1C(=O)N1CCC[C@H]1C(=O)N1CCC[C@H]1C(=O)N[C@@H](CO)C(N)=O [Example 89] was tested. Which Emax [1, 9] did it give?
Its Emax is 94.2%.

What about the Emax ([1]; HEK293, percent of maximal response to GIP(1-42)NH2, 37° C., 0.1% bovine casein, arithmetic mean, read-out: hGIPR Emax, % ± SEM) of the same compound?
Its Emax is 88.9 ± 3.76%.

What about the EC50 ([1]; cAMP, incubated at 37° C., 0.1% bovine casein (no human serum albumin), read-out: hGIPR EC50, nM (SEM, n)) of the same compound?
The EC50 was 0.0301 nM.

What about the EC50 ([2]; incubated at 37° C., read-out: hGLP-1R EC50, nM (SEM, n)) of the same compound?
The EC50 was 1.03 nM.

And the EC50 [3, 10]?
The EC50 was over 9950 nM.

And the EC50 ([3]; cAMP, incubated at 37° C., 0.1% bovine casein (no human serum albumin), read-out: hGCGR EC50, nM (SEM, n))?
Its EC50 is over 9950 nM.

Which results are given for CC[C@H](C)[C@H](NC(=O)[C@H](CC(C)C)NC(=O)[C@](C)(Cc1ccc(O)cc1)NC(=O)[C@@H](CCC(=O)O)NC(=O)[C@@H](NC(=O)[C@H](Cc1ccccc1)NC(=O)[C@H](CCC(=O)O)NC(=O)C(C)(C)NC(=O)[C@H](CCC(N)=O)NC(=O)[C@H](C)NC(=O)[C@H](CCCCNC(=O)COCCOCCNC(=O)COCCOCCNC(=O)CC[C@H](NC(=O)CCCCCCCCCCCCC(=O)O)C(=O)O)NC(=O)[C@H](CCCN)NC(=O)[C@H](CC(=O)O)NC(=O)[C@H](CC(C)C)NC(=O)[C@](C)(CC(C)C)NC(=O)[C@@H](NC(=O)[C@H](CO)NC(=O)[C@H](Cc1ccc2ccccc2c1)NC(=O)[C@H](CC(=O)O)NC(=O)[C@H](CO)NC(=O)[C@@H](NC(=O)[C@](C)(Cc1ccccc1F)NC(=O)[C@@H](NC(=O)CNC(=O)[C@H](CCC(=O)O)NC(=O)C(C)(C)NC(=O)[C@@H](N)Cc1ccc(O)cc1)[C@@H](C)O)[C@@H](C)O)[C@@H](C)CC)[C@@H](C)CC)C(=O)N[C@@H](CCC(=O)O)C(=O)NCC(=O)NCC(=O)N1CCC[C@H]1C(=O)N[C@@H](CO)C(=O)N[C@@H](CO)C(=O)NCC(=O)N[C@@H](C)C(=O)N1CCC[C@H]1C(=O)N1CCC[C@H]1C(=O)N1CCC[C@H]1C(=O)N[C@@H](CO)C(=O)N[C@@H](CCCCNC(=O)COCCOCCNC(=O)COCCOCCNC(=O)CC[C@H](NC(=O)CCCCCCCCCCCCC(=O)O)C(=O)O)C(N)=O [Example 251]?
Emax [1, 9]: 71.2%; EC50 ([1]; cAMP, 37° C., 0.1% bovine casein (no human serum albumin), read-out: hGIPR EC50, nM (SEM, n)): 0.0305 nM; Emax ([2]; HEK293, cAMP, 37° C., 0.1% bovine casein, arithmetic mean, read-out: hGLP-1R Emax, % ± SEM): 99%; EC50 ([2]; 37° C., read-out: hGLP-1R EC50, nM (SEM, n)): 0.338 nM; EC50 [3, 10]: > 9950 nM; EC50 ([3]; cAMP, 37° C., 0.1% bovine casein (no human serum albumin), read-out: hGCGR EC50, nM (SEM, n)): > 9950 nM

CC[C@H](C)[C@H](NC(=O)[C@H](CCCN)NC(=O)[C@H](CC(=O)O)NC(=O)[C@H](CC(C)C)NC(=O)[C@](C)(CC(C)C)NC(=O)[C@@H](NC(=O)C(C)(C)NC(=O)[C@@H](NC(=O)[C@H](CC(=O)O)NC(=O)[C@H](CO)NC(=O)[C@@H](NC(=O)[C@](C)(Cc1ccccc1F)NC(=O)[C@@H](NC(=O)CNC(=O)[C@H](CCC(=O)O)NC(=O)C(C)(C)NC(=O)[C@@H](N)Cc1ccc(O)cc1)[C@@H](C)O)[C@@H](C)O)C(C)C)[C@@H](C)CC)C(=O)N[C@@H](C)C(=O)N[C@@H](CCC(N)=O)C(=O)NC(C)(C)C(=O)N[C@@H](CCC(=O)O)C(=O)N[C@@H](Cc1ccccc1)C(=O)N[C@H](C(=O)N[C@@H](CCCCNC(=O)COCCOCCNC(=O)COCCOCCNC(=O)CC[C@H](NC(=O)CCCCCCCCCCOc1ccc(C(=O)O)cc1)C(=O)O)C(=O)N[C@@](C)(Cc1ccc(O)cc1)C(=O)N[C@@H](CC(C)C)C(=O)N[C@H](C(=O)N[C@@H](CCCCNC(=O)COCCOCCNC(=O)COCCOCCNC(=O)CC[C@H](NC(=O)CCCCCCCCCCOc1ccc(C(=O)O)cc1)C(=O)O)C(=O)NCC(=O)NCC(=O)N1CCC[C@H]1C(=O)N[C@@H](CO)C(=O)N[C@@H](CO)C(=O)NCC(=O)N[C@@H](C)C(=O)N1CCC[C@H]1C(=O)N1CCC[C@H]1C(=O)N1CCC[C@H]1C(=O)N[C@@H](CO)C(N)=O)[C@@H](C)CC)[C@@H](C)CC [Example 313] was tested. Which EC50 [1, 4] did it give?
Its EC50 is 0.00781 nM.

And the Emax [2, 5]?
Its Emax is 95%.

What about the EC50 [2, 6] of the same compound?
The EC50 was 1.13 nM.

And the EC50 [3, 7]?
Its EC50 is over 9950 nM.

And the EC50 [3, 8]?
The EC50 was over 9950 nM.

— US20230265151A1, “GIP/GLP1 CO-AGONIST COMPOUNDS” (priority 2020, published 2023)
